According to US20250352555A1, “METHOD OF INCREASING IMMUNE CELL ACTIVATION AND/OR TREATING CANCER USING DIBENZOXAZEPINONES” (VASCULAR THERAPEUTICS PTY LTD, priority 2022, published 2025):
Values joined by “and” are separate entries in the source; they are usually repeats but may differ in a detail not shown here. Equal values may be shown once. Read-outs that look alike come from different tables or passages of the source.

How the values were obtained:
JUN = assay: Western blotting for JUN, MeWo cells; type: cell-based, human; details: MeWo cells (BRAF WT), 24 h, dose-dependent
Description: (§1) Western blotting. Cells were treated with compounds and times indicated and total cell lysates were prepared in RIPA buffer. Lysates (10 μg) were resolved by SDS-PAGE and transferred to Immobilon-P polyvinylidene difluoride (PVDF) membranes (Millipore, USA).
(§2) Membranes were blocked with 5% skim milk and incubated with rabbit monoclonal anti-c-Jun (Abcam, cat. no. ab32137; mouse, rat and human reactive) antibody, rabbit monoclonal anti-PD-1 (Abcam, cat. no. ab214421) antibody, mouse monoclonal β-actin antibody (Sigma-Aldrich, cat. no. A5316), anti-phospho-SAPK/JNK (Thr^183/Tyr^185) (98F2) (CST, cat. no. 4671) antibody, anti-phospho-p44/42 MAPK (ERK1/2) (Thr^202/Tyr^204) (D13.14.4E) (CST, cat. no. 4370) antibody, anti-phospho-p38 MAPK (Thr^180/Tyr^182) (D3F9) (CST, cat. no. 4511) antibody, anti-SAPK/JNK antibody (CST, cat. no. 9252), anti-p44/42 MAPK (ERK1/2) (137F5) antibody (CST, cat. no. 4695), anti-p38 MAPK antibody (CST, cat. no. 9212), anti-DUSP8 antibody (Abcam, cat. no. ab198175) or anti-c-MAF (BLR045F) antibody (Abcam, cat. no. ab243901). […] Chemiluminescence was detected using the Western Lightning Chemiluminescence system (Thermo Scientific, USA) and ImageQuant™ LAS 4000 biomolecular imager (GE Healthcare Life Sciences, USA). Band intensity in images generated with the LAS 4000 was quantified using NIH Image J. […]

inflammation = details: arthritic mice (Yeh et al., 2021); cited from earlier work
[1] = Systemic pharmacokinetics after oral (PO) and intraperitoneal (IP) administration; type: in vivo; details: male, CD-1, mouse, plasma, 30 mg/kg, male CD-1 mice; for bioavailability: PO, read-out: relative bioavailability
Description: Systemic pharmacokinetics after oral (PO) and intraperitoneal (IP) administration. Male CD-1 mice were injected with BT2 in Formulation 1, Formulation 2 or Formulation 3 (Table 4) and blood was collected after 0.083, 0.25, 0.5, 1, 2, 4, 8 and 24 h. BT2 was given PO or IP injection.
Approximately 110 μl blood samples were collected (n=3/time point, 3 mice/group) into tubes with EDTA-K2 anticoagulant. All blood samples were put on wet ice prior to centrifuging (6000 g, 4° C. for 5 min) to obtain plasma, which were stored at −70° C. or dry ice until analysis.
Plasma samples were analysed by LC-MS/MS (SCIEX ExionLC)-MS/MS (Triple Quad 6500+ With Analyst 1.7.1 AB Sciex). HPLC was performed using a Waters Acquity UPLC HSS T3 1.8 μm, 2.1×50 mm column with Mobile Phase A: H2O-0.025% FA+1 mM NH4OAc and Mobile Phase B: MeOH-0.025% FA+1 mM NH4OAc and injection volume 3 μl.
LC-MS/MS detection was performed for BT2 in plasma of mice given BT2 either by oral gavage (PO) or intraperitoneal (IP) injection. Plasma samples were processed (protein precipitation method used) and injected into LC-MS/MS (SCIEX ExionLC coupled with Triple Quad 6500+).

p-ERK (Thr^202/Tyr^204) = assay: Western blotting for p-ERK, A375 melanoma cells; type: cell-based, human; details: 10 or 100 nM, 24 h
Description: as §1
Membranes were blocked with 5% skim milk and incubated with rabbit monoclonal anti-c-Jun (Abcam, cat. no. ab32137; mouse, rat and human reactive) antibody, rabbit monoclonal anti-PD-1 (Abcam, cat. no. ab214421) antibody, mouse monoclonal β-actin antibody (Sigma-Aldrich, cat. no. A5316), anti-phospho-SAPK/JNK (Thr^183/Tyr^185) (98F2) (CST, cat. no. 4671) antibody, anti-phospho-p44/42 MAPK (ERK1/2) (Thr^202/Tyr^204) (D13.14.4E) (CST, cat. no. 4370) antibody, anti-phospho-p38 MAPK (Thr^180/Tyr^182) (D3F9) (CST, cat. no. 4511) antibody, anti-SAPK/JNK antibody (CST, cat. no. 9252), anti-p44/42 MAPK (ERK1/2) (137F5) antibody (CST, cat. no. […] Chemiluminescence was detected using the Western Lightning Chemiluminescence system (Thermo Scientific, USA) and ImageQuant™ LAS 4000 biomolecular imager (GE Healthcare Life Sciences, USA). Band intensity in images generated with the LAS 4000 was quantified using NIH Image J.
The effect of BT2 on ERK phosphorylation (p-ERK) was evaluated in human melanoma cells given that MAP kinase activation is key to melanoma progression and the paucity of clinically approved ERK inhibitors. […]

PD-1 = assay: Flow cytometry with anti-PD-1 antibodies, Jurkat T cells; type: cell-based, human; details: for inhibition of PD-1 levels: time course (FIG. 17C)
Description: Flow cytometry with anti-PD-1 antibodies. Jurkat T cells were grown in 6 well plates containing RPMI 1640 and 10% FBS. After 24 h, the cells were treated with various concentrations of BT2 or BT3 for 48 h. Alternatively, the cells were incubated with 3 μM BT2 for various times. After treatment, the cells were washed with PBS, and centrifuged at 300×g for 5 min, and resuspended at 5×10^6 cells/ml. The cells were then incubated with BV421 conjugated mouse anti-human CD279 (PD-1) (BD, cat. no. 562516) or BV421 conjugated mouse IgG1 (BD, cat. no. 562438) for 45 min at 22° C. Cells were then washed twice with 1 ml of Stain Buffer, centrifuged and pellets were resuspended in 0.5 ml Stain Buffer. Stained cell suspensions were analyzed by flow cytometry using a BD FACSCanto (II).
Jurkat T cells express PD-1 (Yi et al., 2023) and are widely used as model human T cells (e.g., Repas et al., 2022). […] BT2's effects were not only dose-dependent but time-dependent. BT2 (3 μM) inhibited PD-1 levels by 50% after 24 h and by 80% after 48 h (FIG. 17C).

DUSP8 = assay: Western blotting for DUSP8, Jurkat T cells; type: cell-based, human; details: 24 h
Description: as §1, §2

## CCOC(=O)Nc1ccc2c(c1)C(=O)N(CC)c1ccccc1O2 [BT2, (10-ethyl-11-oxo-10,11-dihydro-dibenzo[b,f][1,4]oxazepin-2-yl)-carbamic acid ethyl ester]
JUN
  JUN expression (Western blot): increased
inflammation
  anti-inflammatory properties: possesses anti-inflammatory properties
[1]; ip, Formulation 1 (G2)
  AUC(0-t): 1440 ng·h/mL and 4.41 µM·h
  Cmax: 1070 ng/mL and 3.29 µM
  Tmax: 15 min
  half-life: 523 min
[1]; ip, Formulation 3 (G6)
  AUC(0-t): 1180 ng·h/mL and 3.62 µM·h
  Cmax: 2.59 µM and 846 ng/mL
  Tmax: 30 min
  half-life: 505 min
[1]; po, Formulation 1 (G1)
  bioavailability: 13.1%
  AUC(0-t): 189 ng·h/mL and 0.579 µM·h
  Cmax: 177 nM and 57.9 ng/mL
  Tmax: 15 min
[1]; po, Formulation 3 (G5)
  bioavailability: 28.8%
  AUC(0-t): 340 ng·h/mL and 1.04 µM·h
  Cmax: 53.7 ng/mL and 165 nM
  Tmax: 60 min
p-ERK (Thr^202/Tyr^204)
  ERK phosphorylation (p-ERK, Western blot): suppressed ERK phosphorylation
PD-1; 0.1 μM, 48 h (FIG. 17A)
  reduction of PD-1 expression: 50%
PD-1; 3 μM, 24 h
  inhibition of PD-1 levels: 50%
PD-1; 3 μM, 48 h, dose response (FIG. 17A)
  reduction of PD-1 expression: 80%
PD-1; 3 μM, 48 h
  inhibition of PD-1 levels: 80%
DUSP8
  DUSP8 protein levels (Western blot): elevated
